Source: patent US8598364B2, “Oligomer-protease inhibitor conjugates” (Nektar Therapeutics, priority 2007, dated 2013)
pEC50, pIC50: −log10 of the molar value. Like-named read-outs stand apart in the source and are kept apart here.

How the values were obtained:
in vitro = conditions: human
Description: (§1) Compounds were tested at a 1.0 μM high-test concentration in DMSO. CEM-SS cells were passaged in T-75 flasks prior to use in the antiviral assay. On the day preceding the assay, the cells were split 1:2 in order to assure they were in exponential growth phase at the time of infection. Total cell and viability quantification was performed using a hemacytometer and trypan blue exclusion. Cell viability was greater than 95% for the cells to be utilized in the assay. The cells were resuspended at 5×10^4 cells/mL in tissue culture medium and added to the drug-containing microtiter plates in a volume of 50 μL.
(§2) Each plate contains cell control wells (cells only), virus control wells (cells plus virus), compound cytotoxicity wells (cells plus compound only), compound colorimetric control wells (compound only), as well as experimental wells (compound plus cells plus virus). Samples were evaluated with triplicate measurements for antiviral efficacy and duplicate measurements for cytotoxicity. Six concentrations at half-log dilutions were used in order to determine the IC50 values and to measure cellular cytotoxicity, if detectable.
(§3) At assay termination, the assay plates were stained with the soluble tetrazolium-based dye MTS (CellTiter Reagent, Promega) to determine cell viability and quantify compound cytotoxicity. […] At termination of the assay, 20 μL of MTS reagent was added per well. The wells were incubated for four to six hours at 37° C. Adhesive plate sealers were used in place of the lids, the seal plate was inverted several times to mix the soluble formazan product and the plate was read spectrophotometrically at 490/650 nm with a Molecular Devices Vmax plate reader.

HIV-1RF = assay: Anti-HIV-1 efficacy in CEM-SS cells infected with HIV-1RF (MTS staining); assay type: cell-based; conditions: for pIC50: read-out: In vitro Activity IC50
Description: as §1
The virus used was the lymphocytropic virus strain HIV-1RF. This virus was obtained from the NIH AIDS research and Reference Reagent Program and was grown in CEM-SS cells for the production of stock virus pools. For each assay, a pre-titered aliquot of virus was removed from the freezer and allowed to thaw slowly to room temperature in a biological safety cabinet. The virus was resuspended and diluted into tissue culture medium such that the amount of virus added to each well in a volume of 50 μL was the amount determined to give approximately 90% cell killing in six days post-infection.
as §2, §3

retroviral protease = molecular target: T1, retroviral protease (Human immunodeficiency virus type 1 group M subtype B, UniProt P04585); assay: Cell-free assay of protease inhibitor conjugates; assay type: biochemical; conditions: for IC50-fold change / IC90 fold change: relative to atazanavir
T1 construct: any small molecule that can reduce the activity of a retroviral protease

CEM-SS cells = assay: in vitro
Description: as §1, §2, §3

[1] = IC50, Table 3, cell-free assay, atazanavir conjugates
[2] = Human immunodeficiency virus 1, CEM-SS, Table 2, atazanavir conjugates, read-out: CEM-SS/HIV-1RF EC50
[3] = Human immunodeficiency virus 1, Table 4, CEM-SS/HIV-1RF, read-out: EC50
[4] = Table 1, CEM-SS cells, HIV-1RF, 50% inhibition of virus replication, 1.0 μM high-test concentration
[5] = Table 3, cell-free assay, atazanavir conjugates, read-out: IC50
[6] = Table 3, cell-free assay, atazanavir conjugates, read-out: IC90
[7] = Table 2, atazanavir conjugates, read-out: CEM-SS/HIV-1RF EC50
[8] = Table 4, CEM-SS/HIV-1RF, read-out: EC50

Compound: CC(C)(C)NC(=O)[C@@H]1C[C@@H]2CCCC[C@@H]2CN1C[C@@H](O)[C@H](Cc1ccccc1)NC(=O)[C@H](CC(N)=O)NC(=O)c1ccc2ccccc2n1 [Saquinavir, saquinavir, reference compound]
- CC50 (in vitro): > 100 nM
- pIC50 (HIV-1RF; Human immunodeficiency virus 1, CEM-SS): 8.70

Compound: CCC[C@@]1(CCc2ccccc2)CC(O)=C([C@H](CC)c2cccc(NS(=O)(=O)c3ccc(C(F)(F)F)cn3)c2)C(=O)O1 [Tipranavir, tipranavir, reference compound]
- pIC50 (retroviral protease; IC50, Table 6, tipranavir conjugates in cell-free assay): 8.14
- CC50 (in vitro): 30600 nM
- pEC50 (HIV-1RF; Human immunodeficiency virus 1, CEM-SS, Table 5, tipranavir conjugates in cell-based assay, read-out: CEM-SS/HIV-1RF EC50): 6.92

Compound: COCCOCCOCCOC(=O)NC(C(=O)NC(Cc1ccccc1)C(O)CN(Cc1ccc(-c2ccccn2)cc1)NC(=O)C(NC(=O)OCCOCCOCCOC)C(C)(C)C)C(C)(C)C (stereo not shown) [di-mPEG-3-Atazanavir, di-mPEG3-Atazanavir]
- IC90 (retroviral protease): 53.7 nM
- pIC50 (retroviral protease; [1]): 7.90
- IC50-fold change (retroviral protease; Table 3, cell-free assay): 1.8
- IC90 fold change (retroviral protease; Table 3, cell-free assay): 1.7
- CC50 (in vitro): 95700 nM
- pEC50 (HIV-1RF; [2]): 7.42
- pEC50 (HIV-1RF; [3]): 7.42

Compound: 15-di-m-PEG-7-NCO-Saquinavir [di-15-m-PEG-7-NCO-Saquinavir]
- CC50 (CEM-SS cells): > 1000 nM
- pIC50 (HIV-1RF; [4]): 6.25

Compound: di-mPEG6-Atazanavir [di-mPEG-6-Atazanavir]
- pIC50 (retroviral protease; [5]): 7.81
- IC90 (retroviral protease; [6]): 67.8 nM
- IC50-fold change (retroviral protease; Table 3, cell-free assay): 2.3
- IC90 fold change (retroviral protease; Table 3, cell-free assay): 2.1
- CC50 (CEM-SS cells): 159000 nM
- pEC50 (HIV-1RF; [7]): 5.60
- pEC50 (HIV-1RF; [8]): 5.60

Compound: di-mPEG5-Atazanavir [di-mPEG-5-Atazanavir]
- pIC50 (retroviral protease; [5]): 7.76
- IC90 (retroviral protease; [6]): 47.6 nM
- IC50-fold change (retroviral protease; Table 3, cell-free assay): 2.5
- IC90 fold change (retroviral protease; Table 3, cell-free assay): 1.5
- CC50 (CEM-SS cells): > 200000 nM
- pEC50 (HIV-1RF; [7]): 5.96
- pEC50 (HIV-1RF; [8]): 5.96

Compound: COCCOCCOCCOCCOCCOCCOCCOC(=O)NC(C(=O)NC(Cc1ccccc1)C(O)CN(Cc1ccc(-c2ccccn2)cc1)NC(=O)C(NC(=O)OCCOCCOCCOCCOCCOCCOCCOC)C(C)(C)C)C(C)(C)C (stereo not shown) [di-mPEG-7-Atazanavir, di-mPEG7-Atazanavir]
- IC90 (retroviral protease): 39.9 nM
- pIC50 (retroviral protease; [1]): 7.96
- IC50-fold change (retroviral protease; Table 3, cell-free assay): 1.6
- IC90 fold change (retroviral protease; Table 3, cell-free assay): 1.3
- CC50 (in vitro): > 200000 nM
- CC50 (CEM-SS cells; human): > 200000 nM
- pEC50 (HIV-1RF; [2]): 5.08
- pEC50 (HIV-1RF; [3]): 5.08

Compound: 26-m-PEG-7-O-Saquinavir
- CC50 (CEM-SS cells): > 1000 nM
- In vitro Activity IC50 (HIV-1RF; [4]): no activity

Compound: Cc1cn([C@H]2C[C@H](N=[N+]=[N-])[C@@H](CO)O2)c(=O)[nH]c1=O [AZT, reference compound]
- CC50 (CEM-SS cells): > 1000 nM
- pEC50 (HIV-1RF; [7]): 9.00
- pEC50 (HIV-1RF; [8]): 9.00
- pEC50 (HIV-1RF; Table 5, tipranavir conjugates in cell-based assay, read-out: CEM-SS/HIV-1RF EC50): 8.70
- pEC50 (HIV-1RF; Table 7, darunavir conjugates in cell-based assay, read-out: CEM-SS/HIV-1RF EC50): 8.30

Compound: 15-m-PEG-7-NHCO-Saquinavir
- CC50 (CEM-SS cells): > 1000 nM
- pIC50 (HIV-1RF; [4]): 7.30

Compound: COC(=O)N[C@H](C(=O)N[C@@H](Cc1ccccc1)[C@@H](O)CN(Cc1ccc(-c2ccccn2)cc1)NC(=O)[C@@H](NC(=O)OC)C(C)(C)C)C(C)(C)C [Atazanavir, atazanavir, reference compound]
- IC90 (retroviral protease): 31.8 nM
- pIC50 (retroviral protease; [1]): 8.16
- IC50-fold change (retroviral protease; Table 3, cell-free assay): 1.0
- IC90 fold change (retroviral protease; Table 3, cell-free assay): 1.0
- CC50 (in vitro): 54900 nM
- pEC50 (HIV-1RF; [2]): 7.92
- pEC50 (HIV-1RF; [3]): 7.92

Compound: CC(C)CN(C[C@@H](O)[C@H](Cc1ccccc1)NC(=O)O[C@H]1CO[C@H]2OCC[C@H]21)S(=O)(=O)c1ccc(N)cc1 [Darunavir, darunavir, reference compound]
- pEC50 (HIV-1RF; Human immunodeficiency virus 1, CEM-SS, read-out: CEM-SS/HIV-1RF EC50): > 9.15

Compound: 26-m-PEG-3-O-Saquinavir
- CC50 (CEM-SS cells): > 1000 nM
- In vitro Activity IC50 (HIV-1RF; [4]): no activity
